Source: patent US20250368648A1, “MULTI-CYCLIC IRAK AND FLT3 INHIBITING COMPOUNDS AND USES THEREOF” (CHILDREN'S HOSPITAL MEDICAL CENTER, priority 2022, published 2025)

Legend:
THP1 cells = assay: Combination drug screening, Cell Titer Glo, THP1 cells; conditions: THP1 cells; for Excess HSA Score: sum score, 10 × 10 dataset, 48 hours;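 on all read-outs here: luminescence read out in 1536-well plates seeded with 500 THP1 cells per well, each drug spanning a 10-point concentration range in the combination matrix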
Description: A smaller concentration indicates higher potency to synergize with Venetoclax. […] The numbers in each cell represent the % response (left) or the Delta Bliss score (right) at each given concentration combination.
A smaller concentration indicates higher potency to synergize with azacitidine. […] The numbers in each cell represent the % response (left) or the Delta Bliss score (right) at each given concentration combination.
(§1) This is a cell line that has the FLT3 ITD mutation but also the FLT3 D835Y kinase domain mutation. […] Excess HSA is a measure of synergy vs. additivity or antagonism, wherein a negative Excess HSA value is indicative of synergy.
Briefly, 10 nL of compounds were acoustically dispensed into 1536-well white polystyrene tissue culture-treated plates with an Echo 550 acoustic liquid handler (Labcyte). MOLM14 (D835Y) or THP1 cells were then added to compound-containing plates at a density of 500-cells/well in 5 μL of medium. A 10-point custom concentration range was used for all listed drugs. […] 48h post compound addition, 3 μL of Cell Titer Glo (Promega) were added to each well and plates were incubated at room temperature for 15 minutes with the stainless-steel lid in place. Luminescence readings were taken using a Viewlux imager (PerkinElmer) with a 2 second exposure time per plate.

MOLM14 (D835Y) cells = assay: Combination drug screening, Cell Titer Glo, MOLM14 (D835Y) cells; conditions: MOLM14(D835Y) cells; for Excess HSA Score: sum score, listed as compound in combination with Compound 106, 48 hours;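 on all read-outs here: MOLM14 cells with FLT3 ITD plus D835Y, 500 per well in 1536-well plates, 10-point dose ranges, luminescent viability after 48 h, negative Excess HSA indicates synergy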
Protocol: Briefly, 10 nL of the compound shown below was acoustically dispensed into 1536-well white polystyrene tissue culture-treated plates with an Echo 550 acoustic liquid handler (Labcyte). Cells were then added to compound-containing plate at a density of 500-cells/well in 5 μL of medium. A 6-point or 10-point custom concentration range was used for all listed drugs. Plates were incubated for 48 hours at standard incubator conditions covered by a stainless steel gasketed lid to prevent evaporation. 48h post compound addition, 3 μL of Cell Titer Glo (Promega) were added to each well and plates were incubated at room temperature for 15 minutes with the stainless-steel lid in place. Luminescence readings were taken using a Viewlux imager (PerkinElmer) with a 2 second exposure time per plate.
A smaller concentration indicates higher potency to synergize with Venetoclax.
A smaller concentration indicates higher potency to synergize with azacitidine.
as §1

[1] = listed as compound in combination with CG-806 (a FLT3/BTK inhibitor)
[2] = listed as compound in combination with Compound 45a
[3] = listed as compound in combination with Compound 46a
[4] = listed as compound in combination with Compound 47a
[5] = listed as compound in combination with Compound 48a
[6] = listed as compound in combination with Compound 102
[7] = listed as compound in combination with Compound 106
[8] = listed as compound in combination with Gilteritinib (a FLT3/AXL inhibitor)
[9] = listed as compound in combination with PF-06650833 (an IRAK4 selective inhibitor)
[10] = listed as compound in combination with Quizartinib (a FLT3/Kit/PDGFRa inhibitor)
[11] = listed as compound in combination with emavusertib (CA-4948) (a FLT3/IRAK4 inhibitor)
[12] = combination therapy of CG-806 (a FLT3/BTK inhibitor) and the named additional compound, 110 × 10 dataset
[13] = combination therapy of Compound 45a and the named additional compound, 110 × 10 dataset
[14] = combination therapy of Compound 46a and the named additional compound, 110 × 10 dataset
[15] = combination therapy of Compound 47a and the named additional compound, 110 × 10 dataset
[16] = combination therapy of Compound 48a and the named additional compound, 110 × 10 dataset
[17] = combination therapy of Compound 102 and the named additional compound, 10 × 10 dataset
[18] = combination therapy of Gilteritinib (a FLT3/AXL inhibitor) and the named additional compound, 110 × 10 dataset
[19] = combination therapy of PF-06650833 (an IRAK4 selective inhibitor) and the named additional compound, 110 × 10 dataset
[20] = combination therapy of Quizartinib (a FLT3/Kit/PDGFRa inhibitor) and the named additional compound, 110 × 10 dataset
[21] = combination therapy of emavusertib (CA-4948) (a FLT3/IRAK4 inhibitor) and the named additional compound, 110 × 10 dataset

Structure (SMILES)	Excess HSA Score (THP1 cells; [1])	Excess HSA Score (THP1 cells; [2])	Excess HSA Score (THP1 cells; [3])	Excess HSA Score (THP1 cells; [4])	Excess HSA Score (THP1 cells; [5])	Excess HSA Score (THP1 cells; [6])	Excess HSA Score (THP1 cells; [7])	Excess HSA Score (THP1 cells; [8])	Excess HSA Score (THP1 cells; [9])	Excess HSA Score (THP1 cells; [10])	Excess HSA Score (THP1 cells; [11])	Sum Excess HSA Score (MOLM14 (D835Y) cells; [12])	Sum Excess HSA Score (MOLM14 (D835Y) cells; [13])	Sum Excess HSA Score (MOLM14 (D835Y) cells; [14])	Sum Excess HSA Score (MOLM14 (D835Y) cells; [15])	Sum Excess HSA Score (MOLM14 (D835Y) cells; [16])	Sum Excess HSA Score (MOLM14 (D835Y) cells; [17])	Sum Excess HSA Score (MOLM14 (D835Y) cells; [18])	Sum Excess HSA Score (MOLM14 (D835Y) cells; [19])	Sum Excess HSA Score (MOLM14 (D835Y) cells; [20])	other results
CC1(C)CCC(CN2CCN(c3ccc(C(=O)NS(=O)(=O)c4ccc(NCC5CCOCC5)c([N+](=O)[O-])c4)c(Oc4cnc5[nH]ccc5c4)c3)CC2)=C(c2ccc(Cl)cc2)C1 [Venetoclax (ABT-199), Venetoclax]	−1431.1287	−1070	−1405	−1419	−628.4379	−1775	−1478	−1448	−429.3	−216	−526.5	−751	−1552	−1667	−1849	−1280.6361	−966.5606	−1406	−1578	−1656	Comments (THP1 cells; combination with CG-806): Synergistic (a negative Excess HSA value is indicative of synergy); Comments (THP1 cells; combination with Compound 45a): Synergistic (a negative Excess HSA value is indicative of synergy); Comments (THP1 cells; combination with Compound 46a): Synergistic (a negative Excess HSA value is indicative of synergy); Comments (THP1 cells; combination with Compound 47a): Synergistic (a negative Excess HSA value is indicative of synergy); Comments (THP1 cells; combination with Compound 102): Synergistic (a negative Excess HSA value is indicative of synergy); Comments (THP1 cells; combination with Compound 106): Synergistic (a negative Excess HSA value is indicative of synergy); Comments (THP1 cells; combination with Gilteritinib): Synergistic (a negative Excess HSA value is indicative of synergy); Comments (synergistic / antagonistic) (MOLM14 (D835Y) cells; [13]): Synergistic (a negative Excess HSA value is indicative of synergy); Comments (synergistic / antagonistic) (MOLM14 (D835Y) cells; [14]): Synergistic (a negative Excess HSA value is indicative of synergy); Comments (synergistic / antagonistic) (MOLM14 (D835Y) cells; [15]): Synergistic (a negative Excess HSA value is indicative of synergy); Comments (synergistic / antagonistic) (MOLM14 (D835Y) cells; [16]): Synergistic (a negative Excess HSA value is indicative of synergy); Comments (synergistic / antagonistic) (MOLM14 (D835Y) cells; [17]): Synergistic (a negative Excess HSA value is indicative of synergy); Comments (synergistic / antagonistic) (MOLM14 (D835Y) cells; [18]): Synergistic (a negative Excess HSA value is indicative of synergy); Comments (synergistic / antagonistic) (MOLM14 (D835Y) cells; [19]): Synergistic (a negative Excess HSA value is indicative of synergy); Comments (synergistic / antagonistic) (MOLM14 (D835Y) cells; [20]): Synergistic (a negative Excess HSA value is indicative of synergy); Comments (synergistic / antagonistic) (MOLM14 (D835Y) cells; [21]): Synergistic (a negative Excess HSA value is indicative of synergy); Sum Excess HSA Score (MOLM14 (D835Y) cells; [21]): −1038; Comments (MOLM14 (D835Y) cells; combination with Compound 106): Synergistic (a negative Excess HSA value is indicative of synergy); Excess HSA Score (MOLM14 (D835Y) cells; 10 × 10 dataset): −1540
C[C@]12C=CC(=O)C=C1CC[C@@H]1[C@@H]2[C@@H](O)C[C@@]2(C)[C@H]1CC[C@]2(O)C(=O)CO [Prednisolone, prednisolone]	335.9	438.5	174.9	134.6	511.8	26.91	274.3	−110.9078	−254.8	−81.1	70.05	−218	−106.5	−52.71	−58.8974	−339.3	−260.2	−583.8	−431.6	213.4	Sum Excess HSA Score (MOLM14 (D835Y) cells; [21]): −4.3456; Excess HSA Score (MOLM14 (D835Y) cells; 10 × 10 dataset): −5.273
COCC1(CO)C(=O)C2CCN1CC2 (stereo not drawn) [Eprenetapopt/APR-246, APR-246 (Eprenetapopt)]	300.5	−629.2	603.9	−14.7	−33.1	171.5	268	365.9	−225.6	437.691	482.6	−271.7	284.5	−183.2	366.1	−140.8	−55.14	647.6	−566	−652.9	Sum Excess HSA Score (MOLM14 (D835Y) cells; [21]): 504.1; Excess HSA Score (MOLM14 (D835Y) cells; 10 × 10 dataset): −43.15
CC(C)Nc1cc(-c2c[nH]c(C(=O)N[C@H](CO)c3cccc(Cl)c3)c2)c(Cl)cn1 [Ulixertinib, ulixertinib]	518	−14.94	260.4	−663.3	−24.53	−301.9	−630.1436	690.556	552.8	−530.2	−230.3	258.3	554.5	−208.5	112.6	−576.8	−768.5	29.29	548.6	1180	Sum Excess HSA Score (MOLM14 (D835Y) cells; [21]): −352.8; Excess HSA Score (MOLM14 (D835Y) cells; 10 × 10 dataset): −71.53
